Data reported in ChEMBL document CHEMBL5724709, “EUbOPEN Chemogenomics Library - IncuCyte” (2024).

How the values were obtained:
Type in all cases: toxicity, cell-based
HEK-293T = assay: Incucyte cell viability with HEK293T; conditions: human, 24 h, 10 µM, compound concentration 10 uM
Fibroblast = assay: Incucyte cell viability with human fibroblast; conditions: 24 h, 10 µM, compound concentration 10 uM
U2OS = assay: Incucyte cell viability with U2OS; conditions: human, 24 h, 10 µM, compound concentration 10 uM
Note: unitless GR value; below 1 slowed growth and below 0 cell loss.

SMILES | Growth Rate (HEK-293T; replicate number 1) | Growth Rate (HEK-293T; replicate number 2) | Growth Rate (Fibroblast; replicate number 1) | Growth Rate (Fibroblast; replicate number 2) | Growth Rate (U2OS; replicate number 1) | Growth Rate (U2OS; replicate number 2)
CC(=O)N[C@@H](Cc1ccc(O)cc1)C(=O)N[C@H](C(=O)N[C@@H](C)C(=O)N[C@@H](CC(=O)O)C(=O)COC(=O)c1c(C)cccc1C)C(C)C | 0.9 | 0.84 | 0.47 | 0.72 | 1 | –
COc1cc(C(C)C)c2c(c1)S(=O)(=O)N(COc1cc(=O)n3cccc(OCCN4CCCCC4)c3n1)C2=O | -0.22 | -0.01 | -0.1 | -0.7 | 0.9 | 1
NC(=O)c1ccc(Oc2ccc(C(N)=O)cc2)cc1 | 1 | – | 1 | – | 1 | –
COc1ccccc1C(=O)Nc1cc2c(cc1N1CCCCC1)n(C)c(=O)n2C | 0.58 | 0.99 | 1 | – | 1 | –
N[C@@H](CC(=O)N1CCN(C(c2ccc(F)cc2)c2ccc(F)cc2)CC1)C(=O)N1Cc2ccccc2C1 | 0.66 | 0.87 | 1 | – | 1 | –
COc1cc2c(NC3CCN(C4CCCCC4)CC3)nc(N3CCCN(C(C)C)CC3)nc2cc1OCCCN1CCCCC1 | -0.52 | -0.39 | 0.42 | 0.22 | -0.09 | 0.29
N#C[C@@H]1CCCN1C(=O)[C@@H]1CCCN1C(=O)CCCc1ccccc1 | 0.6 | 0.93 | 1 | – | 1 | 0.94
CC(=O)OCCN1C(=O)c2c(C)nc3ccc(S(=O)(=O)N4CCOCC4)cc3c2C1=O | 0.92 | 1 | 0.85 | 1 | 0.83 | 1
NC(=O)[C@H]1CCCCc2c1[nH]c1ccc(Cl)cc21 | 0.84 | 1 | 1 | – | 0.17 | 1
CC(C)[C@H](NC(=O)OCc1ccccc1)C(=O)NC(CC(=O)O)C(=O)CF (stereo partly drawn) | 1 | 0.94 | 0.54 | 1 | 1 | 0.69
CC(C)[C@@H]1C(=O)N(S(C)(=O)=O)[C@@H]2CCN(C(=O)/C=C/CN3CCCCC3)[C@H]21.Cl | 0.79 | 0.98 | 0.66 | 1 | 1 | 0.76
C[C@H](NC(=O)[C@H](Cc1ccccc1)NC(=O)OCc1ccccc1)C(=O)CF | 0.53 | 0.77 | 1 | – | 0.43 | 0.93
CCc1ccccc1NC(=O)CSC(=O)NNC(=O)[C@H](Cc1c[nH]c2ccccc12)NC(=O)OC(C)(C)C | 0.24 | 0.54 | 1 | – | 1 | –
CC(C)C[C@@H](C=O)NC(=O)[C@@H](NS(=O)(=O)c1ccc(F)cc1)C(C)C | 0.64 | 0.92 | 0.96 | 1 | 0.76 | 1
O=C(O)/C(S)=C/c1c[nH]c2ccc(F)cc12 | 0.73 | 0.83 | 0.7 | 1 | 0.49 | 1
CNC(=O)O[C@H]1COc2ccc(N3CCN(C4COC4)CC3)cc2[C@@H]1NC(=O)c1ccc(F)cc1 | 0.89 | 0.97 | 1 | 0.67 | 1 | –
O=C(O)/C(S)=C/c1ccc(I)cc1 | 0.71 | 0.86 | 1 | 0.47 | 1 | –
CC(C)C(=O)SCCCCCCC(=O)Nc1nc(-c2ccccc2)cs1 | 0.55 | – | 1 | -0.31 | -0.42 | 0.02
CC(=O)N[C@@H](Cc1ccc(O)cc1)C(=O)N[C@H](C(=O)N[C@@H](C)C(=O)N[C@H](C=O)CC(=O)O)C(C)C | 0.6 | 0.86 | 0.86 | 0.09 | 0.78 | 0.63
COC(=O)C[C@@H]1N=C(c2ccc(Cl)cc2)c2c(sc(C)c2C)-n2c(C)nnc21 | 0.62 | 0.77 | 1 | 0.73 | 1 | –

SMILES | Growth Rate (HEK-293T; replicate number 1) | Growth Rate (HEK-293T; replicate number 2) | Growth Rate (Fibroblast; replicate number 1) | Growth Rate (Fibroblast; replicate number 2) | Growth Rate (U2OS; replicate number 1) | Growth Rate (U2OS; replicate number 2)
Cc1cc(C)c(CNC(=O)c2cc(-c3ccc(N4CCN(C)CC4)nc3)cc3c2c(C)cn3C(C)C)c(=O)[nH]1 | 0.42 | 0.79 | 1 | – | 0.61 | 0.86
CC1(C)c2cccc(C(=O)NO)c2CN1c1cnc(C(F)(F)F)cn1 | 0.61 | 0.71 | 1 | -0.04 | 0.15 | 1
Cc1cc(/N=N/c2ccc3c(c2)CCC(=O)N3)c(N)cc1O | 0.63 | 0.88 | 1 | – | 0.36 | 1
CN1CCN(c2nc(-c3ccc(C(=O)NC4(C(=O)NCC#N)CCCCC4)cc3)cs2)CC1 | 0.86 | 0.8 | 0.74 | 1 | 1 | –
CC(C)(O)c1ccc(-c2nc3c(F)cc(F)cc3c(=O)[nH]2)cc1 | 0.45 | 1 | 0.13 | 0.87 | 0.23 | 1
CCCNC(=O)[C@H]1O[C@@H]1C(=O)N[C@H](C(=O)N1CCC[C@H]1C(=O)O)[C@@H](C)CC | 0.63 | 0.84 | 0.65 | 1 | 1 | –
NC(=O)c1cccc(NC(=O)CCC(=O)NCCc2cn(CCNS(=O)(=O)c3cccc(C(=O)O)c3)nn2)c1 | 0.69 | 0.77 | 0.46 | 1 | 0.49 | 1
CNC[C@@H](O)COc1ccc(Cl)c(-c2nc(-c3c(C)noc3C)c(C)c(N3CC4(CCN(C(=O)OC)CC4)C3)n2)c1 | 0.46 | 0.73 | 0.24 | 1 | 1 | –
CCCOc1cc(OCCCCN(C)C)cc(Oc2cc3c(cc2NS(=O)(=O)c2ccc(OC)c(OC)c2)n(C)c(=O)n3C)c1.O=C(O)C(F)(F)F | 0.59 | 0.72 | 1 | – | 0.87 | 1
O=C([O-])CCNc1cc(N2CCc3ccccc3CC2)nc(-c2cccnc2)n1.[Na+] | 0.83 | 0.92 | 1 | – | 0.55 | 1
Cl.Cl.Nc1ncnc2c1ncn2[C@@H]1O[C@H](C(=O)N2CCN(CC(=O)Nc3cccc4c3CNC4=O)CC2)[C@@H](O)[C@H]1O | 0.67 | 1 | 1 | – | 1 | 0.84
CCC(NC(=O)C(CC(C)C)NC(=O)OCc1ccccc1)C(=O)C(=O)NCCCN1CCOCC1.O=C(O)C(F)(F)F (stereo not drawn) | 0.73 | 0.97 | 1 | – | 1 | –
CC(=O)N[C@@H](CC(=O)O)C(=O)N[C@@H](CCC(=O)O)C(=O)N[C@H](C(=O)N[C@H](C=O)CC(=O)O)C(C)C.O=C(O)C(F)(F)F | 0.74 | 1 | 0.55 | 0.22 | 1 | –
O=C1C(=O)N(Cc2ccccc2)c2ccc(S(=O)(=O)N3CCC[C@H]3COc3ccc(C(F)(F)F)cc3)cc21 | -0.25 | -0.13 | -0.08 | 0.99 | -0.63 | -0.25
CCN(CCN(C)C)C(=O)CNCc1cc(C(N)=O)ccn1.Cl.O | 0.74 | 0.94 | 0.65 | 0.4 | 0.89 | 0.8
CC(=O)N[C@@H](CC(=O)O)C(=O)N[C@@H](CCC(=O)O)C(=O)N[C@H](C(=O)N[C@@H](CC(=O)O)C(=O)CCl)C(C)C.O=C(O)C(F)(F)F | 0.81 | 1 | 1 | 0.21 | 1 | –
Cl.Cl.O=C(O)Cn1nnc(-c2ccc(CN(CCCCOc3ccc(CN4CCCC4)cc3)CCc3ccccc3)cc2)n1 | 0.53 | 0.89 | 0.66 | 1 | 1 | 0.91
CC(=O)N[C@@H](Cc1ccc(O)cc1)C(=O)N[C@H](C(=O)N[C@@H](C)C(=O)N[C@@H](CC(=O)O)C(=O)CCl)C(C)C | 0.82 | 0.89 | 0.42 | 1 | 1 | –
COc1cc2c(NC3CCN(C)CC3)nc(N3CCCN(C)CC3)nc2cc1OCCCN(C)C | 0.78 | 1 | 1 | – | 0.63 | 1
COC[C@@H]1CCCN1S(=O)(=O)c1ccc2c(c1)C(=O)C(=O)N2 | 0.88 | 1 | 0.45 | 0.8 | 1 | –
